Assay results from paper PMC12209990, “Effect of Cytochrome P450 3A Inhibition and Induction by Itraconazole and Rifampin on Tazemetostat Pharmacokinetics in Patients With Advanced Malignancies” (Clinical Pharmacology in Drug Development, 2025).
Like-named read-outs stand apart in the source and are kept apart here. Marks after values point to notes of the source that are not given here.

Experiments:
[1] = Phase I DDI study Part 2: tazemetostat plasma PK alone and with rifampin (noncompartmental analysis); assay type: in vivo, human; conditions: for AUC0‐12h ratio, geoLSM (90% CI) / Cmax ratio, geoLSM (90% CI): steady state with rifampin vs alone, Day 24 versus Day 15; for RacAUC (AUC0‐12h accumulation ratio), geoLSM (90% CI) / RacCmax (Cmax accumulation ratio), geoLSM (90% CI): tazemetostat 800 mg alone, Day 15 versus Day 1; for Tmax / AUC / AUC(0-t) / Cmax / half-life: human; for Tmax: read-out: tmax, median (range)
Excerpt: This was a Phase I, multicenter, open‐label, 2‐part study encompassing a fixed‐sequence design that aimed to characterize the PK of tazemetostat when administered as single and twice‐daily oral doses alone or in combination with either itraconazole (Part 1) or rifampin (Part 2). Secondary objectives were to evaluate the safety profile of tazemetostat when coadministered with either itraconazole (Part 1) or rifampin (Part 2).
(§1) Part 2 of the study evaluated the DDI between tazemetostat and rifampin. On the mornings of Days 1 and 15, patients received a single dose of tazemetostat 800 mg orally. On Days 3‐14, patients received tazemetostat 800 mg twice daily. On Days 17‐23, patients received tazemetostat 800 mg twice daily, coadministered in the morning with a single dose of rifampin 600 mg orally. On the morning of Day 24, patients received a single dose of tazemetostat 800 mg coadministered with rifampin 600 mg. On the morning of Day 25, patients received rifampin 600 mg (Figure 1B). Throughout Part 2, administration of rifampin occurred 1 hour before a meal.
In Part 2, plasma concentrations of tazemetostat following tazemetostat dosing on Days 1, 15, and 24 were quantified for PK analyses before dosing (0 hour) and at 0.5, 1, 1.5, 2, 4, 6, 8, 12, 24, 36, and 48 hours.
Plasma concentrations of tazemetostat, over the ranges of 1.00‐2000 ng/mL, were quantified by a fully validated liquid chromatography with tandem mass spectrometric detection analytical method. Samples that had no detectable peak or had the calculated concentration <1.00 ng/mL were reported as below the lower limit of quantification. Tazemetostat analysis consisted of protein precipitation extraction and separation using mobile phases of 100 mM ammonium formate/water (1:9 v/v) (mobile phase A) and 100 mM ammonium formate/acetonitrile (1:9 v/v) (mobile phase B). Detection was achieved using an API‐5500 mass spectrometer (AB Sciex) using electrospray ionization (positive‐ion mode) in the multiple reaction monitoring mode. The multiple reaction monitoring mode m/z transitions monitored were […] for tazemetostat and the dwell time was set at 300 milliseconds.
Plasma concentration‐time data for tazemetostat were analyzed by noncompartmental analysis using the validated software program Phoenix WinNonlin Professional Version 8.3 (Certara Inc., Mountain View, CA).

[2] = Safety (TEAEs) Part 2: tazemetostat coadministered with rifampin
Protocol: as §1
Safety was assessed by monitoring treatment‐emergent adverse events (TEAEs) and vital signs, electrocardiography, and clinical laboratory tests. TEAEs were defined as adverse events that started or worsened in severity on or after the date of the first dose of the study drug through 30 days after the last dose. Treatment‐related TEAEs were summarized by each study drug for both study parts. Adverse events were coded using the Medical Dictionary for Regulatory Activities Version 23.1 and graded per Common Terminology Criteria for Adverse Events Version 5.0.

[3] = set-up: method as in PMID 29473431, PMID 38520556, PMID 33492746; conditions: doses of 200‐1600 mg twice daily; cited from earlier work
CYP3A = system: CYP3A; set-up: method as in PMID 29473431, PMID 38520556, PMID 33492746; conditions: in vitro; cited from earlier work
[4] = Part 2, tazemetostat 800 mg twice daily alone, multiple dosing, Day 15, plasma

## CCN(c1cc(-c2ccc(CN3CCOCC3)cc2)cc(C(=O)NCc2c(C)cc(C)[nH]c2=O)c1C)C1CCOCC1 [Tazemetostat]
[1]; Part 2
  AUC0‐12h ratio, geoLSM (90% CI): 0.163 (0.128‐0.208) ^d
  Cmax ratio, geoLSM (90% CI): 0.164 (0.122‐0.219) ^d
  RacAUC (AUC0‐12h accumulation ratio), geoLSM (90% CI): 0.816 (0.638‐1.04) ^e
  RacCmax (Cmax accumulation ratio), geoLSM (90% CI): 0.828 (0.635‐1.08) ^e
[1]; Part 2, listed as tazemetostat
  AUC0‐12h ratio, geoLSM (90% CI): 0.163
  Cmax ratio, geoLSM (90% CI): 0.164
  RacAUC (AUC0‐12h accumulation ratio), geoLSM (90% CI): 0.816
  RacCmax (Cmax accumulation ratio), geoLSM (90% CI): 0.828
[1]; [4]
  t1/2, GeoMean (CV%): 7.55 (20.3) hour
  tmax, median (range): 1.00 (0.63‐4.00) hour
[1]; oral, Part 2, tazemetostat 800 mg multiple dosing with rifampin 600 mg once daily, Day 24, plasma
  Tmax: 1.01 h
[1]; plasma, oral, 800 mg, Part 2, tazemetostat 800 mg twice daily alone, multiple dosing, Day 15, plasma, read-out: AUC0‐12 h, GeoMean (CV%)
  AUC: 3610 ng·h/mL
[1]; plasma, oral, 800 mg, Part 2, tazemetostat 800 mg twice daily alone, multiple dosing, Day 15, plasma, read-out: AUC0‐12 h, mean (SD)
  AUC: 4330 ng·h/mL
[1]; plasma, oral, 800 mg, Part 2, tazemetostat 800 mg twice daily alone, multiple dosing, Day 15, plasma, read-out: AUClast, GeoMean (CV%)
  AUC(0-t): 4270 ng·h/mL
[1]; plasma, oral, 800 mg, Part 2, tazemetostat 800 mg twice daily alone, multiple dosing, Day 15, plasma, read-out: AUClast, mean (SD)
  AUC(0-t): 5220 ng·h/mL
[1]; plasma, oral, 800 mg, Part 2, tazemetostat 800 mg twice daily alone, multiple dosing, Day 15, plasma, read-out: Cmax, GeoMean (CV%)
  Cmax: 1100 ng/mL
[1]; plasma, oral, 800 mg, Part 2, tazemetostat 800 mg twice daily alone, multiple dosing, Day 15, plasma, read-out: Cmax, mean (SD)
  Cmax: 1380 ng/mL
[1]; plasma, oral, 800 mg, Part 2, tazemetostat 800 mg twice daily alone, multiple dosing, Day 15, plasma, read-out: t1/2, mean (SD) (converted)
  half-life: 7.7 h
[1]; plasma, oral, Part 2, tazemetostat 800 mg multiple dosing with rifampin 600 mg once daily, Day 24, plasma, read-out: AUC0‐12 h, GeoMean (CV%)
  AUC: 588 ng·h/mL
[1]; plasma, oral, Part 2, tazemetostat 800 mg multiple dosing with rifampin 600 mg once daily, Day 24, plasma, read-out: AUC0‐12 h, mean (SD)
  AUC: 770 ng·h/mL
[1]; plasma, oral, Part 2, tazemetostat 800 mg multiple dosing with rifampin 600 mg once daily, Day 24, plasma, read-out: AUClast, GeoMean (CV%)
  AUC(0-t): 676 ng·h/mL
[1]; plasma, oral, Part 2, tazemetostat 800 mg multiple dosing with rifampin 600 mg once daily, Day 24, plasma, read-out: AUClast, mean (SD)
  AUC(0-t): 934 ng·h/mL
[1]; plasma, oral, Part 2, tazemetostat 800 mg multiple dosing with rifampin 600 mg once daily, Day 24, plasma, read-out: Cmax, GeoMean (CV%)
  Cmax: 181 ng/mL
[1]; plasma, oral, Part 2, tazemetostat 800 mg multiple dosing with rifampin 600 mg once daily, Day 24, plasma, read-out: Cmax, mean (SD)
  Cmax: 233 ng/mL
[1]; plasma, oral, Part 2, tazemetostat 800 mg multiple dosing with rifampin 600 mg once daily, Day 24, plasma, read-out: t1/2, GeoMean (CV%) (converted)
  half-life: 4.86 h
[1]; plasma, oral, Part 2, tazemetostat 800 mg multiple dosing with rifampin 600 mg once daily, Day 24, plasma, read-out: t1/2, mean (SD) (converted)
  half-life: 5.06 h
[1]; plasma, po, 800 mg, Part 2, tazemetostat 800 mg oral single dose alone, Day 1, plasma, read-out: AUC0‐12 h, GeoMean (CV%)
  AUC: 4420 ng·h/mL
[1]; plasma, po, 800 mg, Part 2, tazemetostat 800 mg oral single dose alone, Day 1, plasma, read-out: AUC0‐12 h, mean (SD)
  AUC: 5310 ng·h/mL
[1]; plasma, po, 800 mg, Part 2, tazemetostat 800 mg oral single dose alone, Day 1, plasma, read-out: AUClast, GeoMean (CV%)
  AUC(0-t): 5200 ng·h/mL
[1]; plasma, po, 800 mg, Part 2, tazemetostat 800 mg oral single dose alone, Day 1, plasma, read-out: AUClast, mean (SD)
  AUC(0-t): 6370 ng·h/mL
[1]; plasma, po, 800 mg, Part 2, tazemetostat 800 mg oral single dose alone, Day 1, plasma, read-out: Cmax, GeoMean (CV%)
  Cmax: 1330 ng/mL
[1]; plasma, po, 800 mg, Part 2, tazemetostat 800 mg oral single dose alone, Day 1, plasma, read-out: Cmax, mean (SD)
  Cmax: 1550 ng/mL
[1]; plasma, po, 800 mg, Part 2, tazemetostat 800 mg oral single dose alone, Day 1, plasma, read-out: t1/2, GeoMean (CV%) (converted)
  half-life: 6.22 h
[1]; plasma, po, 800 mg, Part 2, tazemetostat 800 mg oral single dose alone, Day 1, plasma, read-out: t1/2, mean (SD) (converted)
  half-life: 6.49 h
[1]; Part 2, tazemetostat 800 mg oral single dose alone, Day 1, plasma
  Tmax: 1.04 h
[1]; steady state, Day 24/Day 15
  decrease of tazemetostat steady‐state exposure (Cmax and AUC0‐12h) by rifampin: approximately 84%
[2]; Part 2
  Deaths resulting from TEAEs: no deaths
[2]; human, in vivo
  Any TEAE Grade 3 or 4, patients: 13 (61.9) n (%)
  Any TEAE leading to dose reduction, patients: 2 (9.5) n (%)
  Any TEAE leading to study drug discontinuation, patients: 0 n (%)
  Any TEAE leading to study drug interruption, patients: 7 (33.3) n (%)
  Any TEAE, patients: 21 (100.0) n (%)
  Any TESAE, patients: 9 (42.9) n (%)
  Any treatment-related TEAE Grade 3 or 4, patients: 7 (33.3) n (%)
  Any treatment-related TESAE, patients: 1 (4.8) n (%)
  Grade 3/4 TEAE decreased lymphocyte count: 9.5%
  TEAE anemia, frequency: 23.8%
  TEAE constipation, frequency: 23.8%
  TEAE cough, frequency: 28.6%
  TEAE diarrhea, frequency: 33.3%
  TEAE fatigue, frequency: 42.9%
  TEAE nausea, frequency: 23.8%
  Tazemetostat‐related Grade 3/4 TEAE acute kidney injury: 4.8%
  Tazemetostat‐related Grade 3/4 TEAE alanine aminotransferase increased: 4.8%
  Tazemetostat‐related Grade 3/4 TEAE anemia: 9.5%
  Tazemetostat‐related Grade 3/4 TEAE aspartate aminotransferase: 4.8%
  Tazemetostat‐related Grade 3/4 TEAE diarrhea: 4.8%
  Tazemetostat‐related Grade 3/4 TEAE syncope: 4.8%
  Treatment-related TEAE Grade 3 or 4, related to the named study drug, patients: 7 (33.3) n (%)
  Treatment-related TEAEs, related to the named study drug, patients: 16 (76.2) n (%)
  Treatment-related TESAE, related to the named study drug, patients: 1 (4.8) n (%)
[2]; in vivo
  Any TEAE, patients: all patients
[3]
  dose proportionality of systemic exposure: approximately dose proportional
CYP3A
  metabolism by CYP3A: mainly metabolized by cytochrome P450 (CYP), family 3, subfamily A (CYP3A)
